From patent US11304974B2, “Nanosystems comprising silver and antibiotics and their use for the treatment of bacterial infections” (priority 2017, dated 2022)
Read-outs that look alike come from different tables or passages of the source.

Columns and labels:
[1] = tested on: Pseudomonas DacB Mutant (hiperproducing AMPC); assay: Silver-antibiotics interaction study, MicroScan (Example 4); assay type: cell-based, Pseudomonas aeruginosa; settings: subinhibitory colloidal silver (½ or 1/10 MIC)
Protocol: (§1) The effect of subinhibitory concentrations of colloidal silver (namely, ½ and 1/10 dilution of the MIC obtained in Example 3) in the presence of different types of antibiotics was tested.
(§2) For this, an automated equipment MicroScan AutoScan 4 (Siemens) was used, using Gram negative (Becman Coulter NM37) and Gram positive (Becman Coulter PM28) cards.
(§3) Each of these broths served as inoculum for the cards with antibiotics (for each strain, thus 3 cards were prepared). • Incubating the plates with antibiotics (in presence and absence of silver) at 37° C. for 24 h. • Reading the cards by use of LabPro software, and interpretation of the obtained values of MIC (determine if the silver reduces the initial MCI of each antibiotic).

[2] = tested on: S. aureus Sa-13 (strain 12); assay: Epsilometry E-test, absence and presence of silver (Example 5); assay type: cell-based; settings: Staphylococcus aureus, strain 12 (S. aureus Sa-13)
Protocol: (§4) In order to evaluate the synergy of collargol-antibiotics an epsilometry E-test was carried out. Said test is based on the agar diffusion method and relates to using a strip with a predefined steady gradient of 15 concentrations of the antibiotic being tested. After strain growth, an elliptical inhibition halo, being the MIC the antibiotic concentration corresponding to the cutting point.
(§5) It was performed for the antibiotics vancomycin, linezolid and tedizolid, in absence and presence of silver (½ and 1/10 MIC).

[3] = tested on: S. aureus Sa-11 (strain 10); assay: as above; assay type: cell-based; settings: Staphylococcus aureus, strain 10 (S. aureus Sa-11)
Protocol: as §4, §5

[4] = tested on: S. aureus Sa-12 (strain 11); assay: as above; assay type: cell-based; settings: Staphylococcus aureus, strain 11 (S. aureus Sa-12)
Protocol: as §4, §5

[5] = tested on: S. epidermidis Se-1 (strain 14); assay: as above; assay type: cell-based; settings: Staphylococcus epidermidis, strain 14 (S. epidermidis Se-1)
Protocol: as §4, §5

[6] = tested on: S. aureus Sa-10 (strain 9); assay: as above; assay type: cell-based; settings: Staphylococcus aureus, strain 9 (S. aureus Sa-10)
Protocol: as §4, §5

[7] = tested on: S. aureus Sa-3 (strain 3); assay: as above; assay type: cell-based; settings: Staphylococcus aureus, strain 3 (S. aureus Sa-3)
Protocol: as §4, §5

[8] = tested on: S.aureus ATCC 700698 Sa-SARM (strain 15); assay: as above; assay type: cell-based; settings: Staphylococcus aureus, ATCC700698, strain 15 (S.aureus ATCC 700698, Sa-SARM)
Protocol: as §4, §5

[9] = tested on: S. aureus Sa-1 (strain 1); assay: as above; assay type: cell-based; settings: Staphylococcus aureus, strain 1 (S. aureus Sa-1)
Protocol: as §4, §5

[10] = tested on: S. aureus Sa-9 (strain 8); assay: as above; assay type: cell-based; settings: Staphylococcus aureus, strain 8 (S. aureus Sa-9)
Protocol: as §4, §5

Klebsiella BLEE + = assay: Silver-antibiotics interaction study, MicroScan (Example 4); assay type: cell-based, Klebsiella pneumoniae; settings: subinhibitory colloidal silver (½ or 1/10 MIC)
Protocol: as §1, §2, §3

[11] = tested on: Pseudomonas MexR Mutant (efflux pump over-expression); assay: as above; assay type: cell-based, Pseudomonas aeruginosa; settings: colloidal silver at ½ MIC
From the text: as §2

E. coli BLEE + = assay: as above; assay type: cell-based, Escherichia coli; settings: subinhibitory colloidal silver (½ or 1/10 MIC)
Protocol: as §1, §2, §3

[12] = MH agar with 1/10 MIC of colargol, read-out: MIC (E-test) MH-1/10 MIC
[13] = MH agar with ½ MIC of colargol, read-out: MIC (E-test) MH-½ MIC
[14] = MH agar without silver, read-out: MIC (E-test) MH (without silver)

`CO/N=C(\C(=O)N[C@@H]1C(=O)N2C(C(=O)[O-])=C(C[N+]3(C)CCCC3)CS[C@H]12)c1csc(N)n1` [Cefepime] was tested, and the “Effect of silver on the strain's sensitivity to the antibiotic” value (from here on “Effect of silver”) [1] was “moderate effect improving the MIC values”.

For `C[C@@H]1O[C@@H]1P(=O)(O)O` [Fosfomicine, Fosfomycin], the “Effect of silver” value [1] was “change to sensitive”.

In the case of `CC(=O)NC[C@H]1CN(c2ccc(N3CCOCC3)c(F)c2)C(=O)O1` [Linezolid], the MIC [2, 12] is reported as 0.38 µg/mL, the MIC [2, 13] is reported as 0.5 µg/mL and the MIC [2, 14] is reported as 0.5 µg/mL. The MIC [3, 12] was 1.5 µg/mL, the MIC [3, 13] was 1.5 µg/mL and the MIC [3, 14] was 1.5 µg/mL. For the same compound, the MIC [4, 12] was 0.5 µg/mL, the MIC [4, 13] was 0.5 µg/mL and the MIC [4, 14] was 1 µg/mL. For the same compound, the MIC [5, 12] was 0.75 µg/mL, the MIC [5, 13] was 0.5 µg/mL and the MIC [5, 14] was 0.75 µg/mL. It also gave an MIC [6, 12] of 1 µg/mL, an MIC [6, 13] of 0.75 µg/mL and an MIC [6, 14] of 0.75 µg/mL. For the same compound, the MIC [7, 12] was 1.5 µg/mL, the MIC [7, 13] was 1 µg/mL and the MIC [7, 14] was 1.5 µg/mL. It also gave an MIC [8, 12] of 0.5 µg/mL, an MIC [8, 13] of 0.38 µg/mL and an MIC [8, 14] of 0.5 µg/mL.

With `CCN1CCN(C(=O)N[C@@H](C(=O)N[C@@H]2C(=O)N3[C@@H]2SC(C)(C)[C@@H]3C(=O)O)c2ccccc2)C(=O)C1=O` [Piperacillin] the “Effect of silver” value [1] was “moderate effect improving the MIC values”.

With `Cn1nnc(-c2ccc(-c3ccc(N4C[C@H](CO)OC4=O)cc3F)cn2)n1` [Tedizolid] the MIC [3, 13] was 0.25 µg/mL, the MIC [3, 14] was 0.38 µg/mL and the MIC [4, 13] was 0.25 µg/mL. The MIC [4, 14] was 0.25 µg/mL, the MIC [9, 12] was 0.25 µg/mL and the MIC [9, 13] was 0.19 µg/mL. It also gave an MIC [9, 14] of 0.19 µg/mL, an MIC [5, 12] of 0.38 µg/mL and an MIC [5, 13] of 0.25 µg/mL. The MIC [5, 14] was 0.38 µg/mL, the MIC [6, 12] was 0.38 µg/mL and the MIC [6, 13] was 0.38 µg/mL. For the same compound, the MIC [6, 14] was 0.5 µg/mL, the MIC [10, 12] was 0.19 µg/mL and the MIC [10, 13] was 0.19 µg/mL. For the same compound, the MIC [10, 14] was 0.25 µg/mL, the MIC [7, 12] was 0.19 µg/mL and the MIC [7, 13] was 0.125 µg/mL. It also gave an MIC [7, 14] of 0.19 µg/mL.

With `C[C@H]1[C@H](NC(=O)/C(=N\OC(C)(C)C(=O)O)c2csc(N)n2)C(=O)N1S(=O)(=O)O` [aztreonam, Aztreonam] the “Effect of silver” value [1] was “change to sensitive” and the “Effect of silver” value (Klebsiella BLEE +) was “becomes sensitive”.

`CO/N=C(\C(=O)N[C@@H]1C(=O)N2C(C(=O)O)=C(COC(C)=O)CS[C@H]12)c1csc(N)n1` [cefotaxime, Cefotaxime] was tested, and the “Effect of silver” value [11] was “improvement in the MIC”.

For `NC[C@H]1O[C@H](O[C@H]2[C@H](O)[C@@H](O[C@H]3O[C@H](CO)[C@@H](O)[C@H](N)[C@H]3O)[C@H](N)C[C@@H]2N)[C@H](N)C[C@@H]1O` [tobramycin, Tobramycin], the “Effect of silver” value (E. coli BLEE +) was “becomes sensitive”.

In the case of Colistin, the “Effect of silver” value [11] is reported as “improvement in the MIC” and the “Effect of silver” value [1] is reported as “moderate effect improving the MIC values”.

Gentamicin was tested, and the “Effect of silver” value (E. coli BLEE +) was “becomes sensitive”.
